Experimental data published in ChEMBL document CHEMBL4190379 (Bioorg Med Chem Lett, 2018).

What was measured:
[1] = target: T1, E3 ubiquitin-protein ligase TRIM33 (Homo sapiens) (UniProt Q9UPN9); assay: Binding affinity to human TRIM33-phd-bromo expressed in bacterial system assessed as remaining binding level at 1 uM by BROMOscan assay relative to control
T1 sequence (whole entry): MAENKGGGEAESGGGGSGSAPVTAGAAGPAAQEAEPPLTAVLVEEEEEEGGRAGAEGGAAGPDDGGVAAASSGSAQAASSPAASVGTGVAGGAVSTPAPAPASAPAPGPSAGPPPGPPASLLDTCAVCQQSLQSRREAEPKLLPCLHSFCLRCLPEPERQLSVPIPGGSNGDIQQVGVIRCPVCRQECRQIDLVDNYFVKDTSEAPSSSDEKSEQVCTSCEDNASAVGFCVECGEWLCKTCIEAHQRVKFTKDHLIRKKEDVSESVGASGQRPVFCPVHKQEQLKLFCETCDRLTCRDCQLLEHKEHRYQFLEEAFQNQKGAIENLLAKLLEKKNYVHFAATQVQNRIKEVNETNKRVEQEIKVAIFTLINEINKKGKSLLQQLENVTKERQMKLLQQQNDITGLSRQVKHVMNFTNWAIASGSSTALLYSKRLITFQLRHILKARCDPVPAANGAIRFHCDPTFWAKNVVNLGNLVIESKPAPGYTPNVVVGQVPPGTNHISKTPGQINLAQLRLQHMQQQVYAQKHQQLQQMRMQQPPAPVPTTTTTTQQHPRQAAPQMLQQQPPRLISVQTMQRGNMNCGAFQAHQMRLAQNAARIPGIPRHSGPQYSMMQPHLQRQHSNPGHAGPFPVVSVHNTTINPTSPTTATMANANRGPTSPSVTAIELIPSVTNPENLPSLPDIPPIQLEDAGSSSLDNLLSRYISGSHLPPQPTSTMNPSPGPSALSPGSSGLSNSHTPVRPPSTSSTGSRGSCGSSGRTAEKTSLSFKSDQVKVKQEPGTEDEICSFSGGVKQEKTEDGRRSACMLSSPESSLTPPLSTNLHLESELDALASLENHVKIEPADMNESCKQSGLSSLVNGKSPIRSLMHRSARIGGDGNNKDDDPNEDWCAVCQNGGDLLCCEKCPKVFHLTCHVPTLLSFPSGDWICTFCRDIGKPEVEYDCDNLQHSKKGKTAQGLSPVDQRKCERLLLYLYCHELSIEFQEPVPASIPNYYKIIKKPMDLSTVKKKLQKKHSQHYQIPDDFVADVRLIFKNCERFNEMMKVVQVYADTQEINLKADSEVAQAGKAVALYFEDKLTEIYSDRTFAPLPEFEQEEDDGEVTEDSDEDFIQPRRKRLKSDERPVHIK

[2] = target: Protein polybromo-1 (Homo sapiens) (UniProt Q86U86); assay: Binding affinity to human PBRM1 bromodomain 2 expressed in bacterial system assessed as remaining binding level at 1 uM by BROMOscan assay relative to control
[3] = target: Histone acetyltransferase KAT2B (Homo sapiens) (UniProt Q92831); assay: Binding affinity to human PCAF expressed in mammalian system assessed as remaining binding level at 1 uM by BROMOscan assay relative to control
[4] = target: Bromodomain testis-specific protein (Homo sapiens, UniProt Q58F21); assay: Binding affinity to BRDT bromodomain 1 to 2 (N21to P380 amino acids) (unknown origin) using Alexa647-labeled BET-inhibitor as fluorescent probe by bromodomain TR-FRET binding assay
MX1 = assay: Antiproliferative activity against human MX1 cells incubated for 72 hrs by cell-titer Glo assay; format: functional, cell-based; conditions: MX1, 72 h
[5] = Intrinsic unbound clearance in human liver microsomes; format: ADME, microsome
[6] = target: Histone acetyltransferase p300 (Homo sapiens) (UniProt Q09472); assay: Binding affinity to human EP300 expressed in bacterial system assessed as remaining binding level at 1 uM by BROMOscan assay relative to control
[7] = target: T2, Bromodomain and PHD finger-containing protein 3 (Homo sapiens) (UniProt Q9ULD4); assay: Binding affinity to human BRPF3 expressed in bacterial system assessed as remaining binding level at 1 uM by BROMOscan assay relative to control
T2 sequence (whole entry): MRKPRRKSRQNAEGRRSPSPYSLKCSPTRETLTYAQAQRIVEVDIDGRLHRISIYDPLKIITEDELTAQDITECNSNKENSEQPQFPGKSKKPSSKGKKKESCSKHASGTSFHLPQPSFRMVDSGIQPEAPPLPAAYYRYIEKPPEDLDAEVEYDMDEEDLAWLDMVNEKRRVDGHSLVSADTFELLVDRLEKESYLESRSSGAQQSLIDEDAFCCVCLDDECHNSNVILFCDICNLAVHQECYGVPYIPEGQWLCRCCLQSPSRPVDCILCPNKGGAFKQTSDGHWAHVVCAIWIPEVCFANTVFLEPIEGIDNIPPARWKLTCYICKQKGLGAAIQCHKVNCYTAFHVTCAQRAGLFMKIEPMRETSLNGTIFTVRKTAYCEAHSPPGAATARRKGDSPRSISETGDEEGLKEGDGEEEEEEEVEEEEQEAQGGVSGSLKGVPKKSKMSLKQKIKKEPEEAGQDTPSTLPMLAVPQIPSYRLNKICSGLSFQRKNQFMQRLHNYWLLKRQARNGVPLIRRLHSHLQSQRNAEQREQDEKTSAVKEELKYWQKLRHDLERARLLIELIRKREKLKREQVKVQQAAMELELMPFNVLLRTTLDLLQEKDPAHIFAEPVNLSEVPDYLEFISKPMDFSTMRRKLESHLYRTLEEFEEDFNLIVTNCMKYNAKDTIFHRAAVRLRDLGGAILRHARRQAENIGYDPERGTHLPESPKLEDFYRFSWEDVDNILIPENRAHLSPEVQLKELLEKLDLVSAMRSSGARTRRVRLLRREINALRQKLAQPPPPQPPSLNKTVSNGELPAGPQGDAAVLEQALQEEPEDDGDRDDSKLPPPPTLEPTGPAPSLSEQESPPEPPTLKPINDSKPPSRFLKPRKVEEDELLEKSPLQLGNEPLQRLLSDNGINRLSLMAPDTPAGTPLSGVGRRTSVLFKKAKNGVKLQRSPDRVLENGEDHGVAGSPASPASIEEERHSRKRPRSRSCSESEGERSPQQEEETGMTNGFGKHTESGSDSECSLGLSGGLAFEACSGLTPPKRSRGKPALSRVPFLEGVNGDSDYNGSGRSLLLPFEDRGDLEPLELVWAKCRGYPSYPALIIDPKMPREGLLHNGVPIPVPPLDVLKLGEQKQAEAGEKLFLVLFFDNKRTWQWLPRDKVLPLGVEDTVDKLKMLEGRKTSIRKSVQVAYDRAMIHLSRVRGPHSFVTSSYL

Sequence of Histone acetyltransferase KAT2B (Homo sapiens) (Q92831 whole entry, looked up, the tested form may be a part): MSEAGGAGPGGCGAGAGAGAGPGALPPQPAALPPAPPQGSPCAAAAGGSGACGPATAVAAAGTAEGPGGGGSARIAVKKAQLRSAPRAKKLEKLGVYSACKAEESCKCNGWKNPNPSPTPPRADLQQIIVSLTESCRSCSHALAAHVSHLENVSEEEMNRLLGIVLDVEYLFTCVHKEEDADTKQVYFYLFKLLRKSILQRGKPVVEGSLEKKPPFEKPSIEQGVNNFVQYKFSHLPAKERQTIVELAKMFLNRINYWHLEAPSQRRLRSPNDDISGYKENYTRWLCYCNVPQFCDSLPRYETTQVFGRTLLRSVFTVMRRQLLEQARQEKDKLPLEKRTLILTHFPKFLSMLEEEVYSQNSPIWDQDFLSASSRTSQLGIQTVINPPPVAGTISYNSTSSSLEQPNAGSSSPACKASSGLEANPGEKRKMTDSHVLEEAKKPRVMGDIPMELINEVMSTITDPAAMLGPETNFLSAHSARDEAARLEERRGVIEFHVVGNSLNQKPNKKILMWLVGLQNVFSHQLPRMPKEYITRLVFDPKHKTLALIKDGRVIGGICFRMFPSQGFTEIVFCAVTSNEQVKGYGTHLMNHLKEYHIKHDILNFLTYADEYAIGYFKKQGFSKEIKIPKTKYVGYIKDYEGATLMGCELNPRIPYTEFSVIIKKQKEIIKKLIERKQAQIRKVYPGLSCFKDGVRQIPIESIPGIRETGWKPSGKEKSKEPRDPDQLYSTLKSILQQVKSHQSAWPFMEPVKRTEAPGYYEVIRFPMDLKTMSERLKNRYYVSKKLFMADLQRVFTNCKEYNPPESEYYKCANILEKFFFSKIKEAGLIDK
Sequence of Histone acetyltransferase p300 (Homo sapiens) (Q09472 whole entry): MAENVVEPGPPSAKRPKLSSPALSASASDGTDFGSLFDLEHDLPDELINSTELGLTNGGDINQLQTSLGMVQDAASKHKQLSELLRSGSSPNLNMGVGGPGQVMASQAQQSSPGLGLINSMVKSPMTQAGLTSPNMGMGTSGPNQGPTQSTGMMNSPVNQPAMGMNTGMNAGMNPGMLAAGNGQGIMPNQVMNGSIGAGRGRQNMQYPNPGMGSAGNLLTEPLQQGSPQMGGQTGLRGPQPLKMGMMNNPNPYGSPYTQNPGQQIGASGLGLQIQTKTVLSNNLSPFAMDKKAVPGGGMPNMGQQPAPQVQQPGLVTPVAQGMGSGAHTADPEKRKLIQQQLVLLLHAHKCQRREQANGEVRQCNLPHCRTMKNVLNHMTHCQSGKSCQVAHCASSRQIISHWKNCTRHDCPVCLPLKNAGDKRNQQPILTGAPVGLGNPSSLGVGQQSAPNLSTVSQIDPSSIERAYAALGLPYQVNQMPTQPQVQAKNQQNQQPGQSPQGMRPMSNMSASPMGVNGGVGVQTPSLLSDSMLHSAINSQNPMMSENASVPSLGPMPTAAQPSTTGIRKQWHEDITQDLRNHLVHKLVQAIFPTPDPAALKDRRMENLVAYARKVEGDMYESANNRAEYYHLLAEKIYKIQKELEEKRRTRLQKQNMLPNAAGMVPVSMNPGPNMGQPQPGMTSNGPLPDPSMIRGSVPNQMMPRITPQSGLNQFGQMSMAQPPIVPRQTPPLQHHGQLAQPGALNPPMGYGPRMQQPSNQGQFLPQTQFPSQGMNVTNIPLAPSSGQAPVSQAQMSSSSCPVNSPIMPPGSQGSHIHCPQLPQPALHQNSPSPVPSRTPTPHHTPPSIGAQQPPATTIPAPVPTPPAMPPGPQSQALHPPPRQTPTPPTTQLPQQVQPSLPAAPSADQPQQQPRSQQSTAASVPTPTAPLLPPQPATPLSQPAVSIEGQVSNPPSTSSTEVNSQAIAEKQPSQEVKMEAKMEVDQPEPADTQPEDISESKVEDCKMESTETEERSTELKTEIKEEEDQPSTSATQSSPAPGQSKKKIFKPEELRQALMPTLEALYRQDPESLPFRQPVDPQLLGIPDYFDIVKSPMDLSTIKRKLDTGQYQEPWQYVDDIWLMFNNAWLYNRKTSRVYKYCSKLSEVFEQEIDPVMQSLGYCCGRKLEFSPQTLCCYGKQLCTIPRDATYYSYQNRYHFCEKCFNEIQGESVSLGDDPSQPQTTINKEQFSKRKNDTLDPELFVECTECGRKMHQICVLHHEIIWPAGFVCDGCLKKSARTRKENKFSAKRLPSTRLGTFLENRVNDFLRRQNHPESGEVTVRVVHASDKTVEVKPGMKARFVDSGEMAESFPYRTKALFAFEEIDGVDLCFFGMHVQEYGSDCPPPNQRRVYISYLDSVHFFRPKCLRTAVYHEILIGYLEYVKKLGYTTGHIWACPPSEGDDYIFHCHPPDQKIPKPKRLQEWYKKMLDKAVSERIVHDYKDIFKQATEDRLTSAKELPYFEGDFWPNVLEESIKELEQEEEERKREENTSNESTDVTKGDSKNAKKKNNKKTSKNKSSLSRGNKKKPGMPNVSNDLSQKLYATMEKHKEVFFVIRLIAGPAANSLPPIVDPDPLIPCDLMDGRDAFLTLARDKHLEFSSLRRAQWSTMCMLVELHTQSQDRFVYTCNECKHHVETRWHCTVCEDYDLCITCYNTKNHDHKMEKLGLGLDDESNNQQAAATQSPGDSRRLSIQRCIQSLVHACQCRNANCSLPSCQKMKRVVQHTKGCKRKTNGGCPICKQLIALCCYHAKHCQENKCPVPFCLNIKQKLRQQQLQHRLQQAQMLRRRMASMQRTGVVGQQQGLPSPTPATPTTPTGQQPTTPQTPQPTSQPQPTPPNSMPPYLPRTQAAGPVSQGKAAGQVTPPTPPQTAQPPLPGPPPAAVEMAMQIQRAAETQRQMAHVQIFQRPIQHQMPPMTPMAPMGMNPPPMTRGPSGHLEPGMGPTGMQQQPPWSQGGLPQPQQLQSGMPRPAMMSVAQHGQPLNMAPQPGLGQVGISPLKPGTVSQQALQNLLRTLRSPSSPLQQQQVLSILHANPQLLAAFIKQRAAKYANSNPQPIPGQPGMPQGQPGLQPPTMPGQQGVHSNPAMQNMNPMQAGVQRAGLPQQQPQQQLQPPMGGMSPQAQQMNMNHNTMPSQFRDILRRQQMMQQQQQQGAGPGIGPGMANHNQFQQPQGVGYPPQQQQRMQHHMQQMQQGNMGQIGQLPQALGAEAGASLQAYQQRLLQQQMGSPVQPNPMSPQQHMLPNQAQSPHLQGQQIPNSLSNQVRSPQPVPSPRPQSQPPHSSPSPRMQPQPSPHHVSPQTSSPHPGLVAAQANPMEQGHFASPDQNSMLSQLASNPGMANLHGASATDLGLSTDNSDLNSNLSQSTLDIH
Sequence of Protein polybromo-1 (Homo sapiens) (Q86U86 whole entry): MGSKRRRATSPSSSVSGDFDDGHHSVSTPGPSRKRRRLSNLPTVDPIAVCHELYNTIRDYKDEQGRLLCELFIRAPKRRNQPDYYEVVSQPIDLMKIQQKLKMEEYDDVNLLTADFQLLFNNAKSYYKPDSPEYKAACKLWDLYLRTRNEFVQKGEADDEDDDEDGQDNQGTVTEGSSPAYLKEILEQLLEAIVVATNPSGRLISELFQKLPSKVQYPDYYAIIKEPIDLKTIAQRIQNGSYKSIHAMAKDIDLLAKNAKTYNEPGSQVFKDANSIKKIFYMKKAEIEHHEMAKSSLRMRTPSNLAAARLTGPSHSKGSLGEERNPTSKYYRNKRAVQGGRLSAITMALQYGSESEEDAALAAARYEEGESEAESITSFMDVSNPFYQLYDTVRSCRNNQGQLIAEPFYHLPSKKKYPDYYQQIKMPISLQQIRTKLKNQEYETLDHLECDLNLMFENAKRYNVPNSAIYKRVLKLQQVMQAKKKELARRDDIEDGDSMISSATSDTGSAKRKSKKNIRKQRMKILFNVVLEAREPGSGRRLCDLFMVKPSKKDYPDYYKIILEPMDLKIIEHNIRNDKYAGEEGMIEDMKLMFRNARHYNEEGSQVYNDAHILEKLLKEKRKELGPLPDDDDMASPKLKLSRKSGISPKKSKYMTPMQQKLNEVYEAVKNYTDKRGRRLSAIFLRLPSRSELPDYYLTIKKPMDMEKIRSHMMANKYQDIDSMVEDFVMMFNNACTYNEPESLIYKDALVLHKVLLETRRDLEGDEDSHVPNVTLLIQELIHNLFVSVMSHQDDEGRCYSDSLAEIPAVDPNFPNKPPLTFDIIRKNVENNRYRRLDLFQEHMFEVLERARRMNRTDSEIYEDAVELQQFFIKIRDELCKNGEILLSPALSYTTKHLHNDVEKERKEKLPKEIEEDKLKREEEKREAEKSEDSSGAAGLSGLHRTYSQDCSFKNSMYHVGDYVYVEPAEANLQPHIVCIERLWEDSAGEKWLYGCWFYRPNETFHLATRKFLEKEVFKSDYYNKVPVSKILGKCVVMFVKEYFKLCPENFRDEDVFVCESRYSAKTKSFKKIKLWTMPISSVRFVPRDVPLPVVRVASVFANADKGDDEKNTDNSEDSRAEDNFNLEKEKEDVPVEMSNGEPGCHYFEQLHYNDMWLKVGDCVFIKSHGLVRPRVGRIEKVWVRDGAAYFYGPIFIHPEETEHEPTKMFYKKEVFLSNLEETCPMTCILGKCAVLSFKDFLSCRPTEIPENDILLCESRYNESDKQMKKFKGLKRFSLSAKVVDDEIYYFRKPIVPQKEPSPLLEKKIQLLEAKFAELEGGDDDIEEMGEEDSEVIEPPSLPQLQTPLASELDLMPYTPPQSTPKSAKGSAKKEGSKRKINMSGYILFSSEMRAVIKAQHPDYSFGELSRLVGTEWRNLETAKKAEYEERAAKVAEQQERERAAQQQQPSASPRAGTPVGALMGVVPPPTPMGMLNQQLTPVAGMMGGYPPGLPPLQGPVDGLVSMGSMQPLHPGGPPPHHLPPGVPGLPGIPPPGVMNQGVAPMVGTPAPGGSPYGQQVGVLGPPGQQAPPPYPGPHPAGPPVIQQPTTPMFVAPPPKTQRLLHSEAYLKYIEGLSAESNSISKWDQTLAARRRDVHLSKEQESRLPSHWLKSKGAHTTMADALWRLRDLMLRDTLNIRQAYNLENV

Row | Activity [1] [%] | Activity [2] [%] | Activity [3] [%] | Ki [4] [nM] | CL free [5] [mL/min/kg] | Activity [6] [%] | Activity [7] [%] | SMILES | EC50 (MX1) [nM]
1 | 100 | 92 | 82 | 5.9 | 91.7 | 42 | 100 | Cn1cc2c3c(c[nH]c(=O)c31)-c1cc(CS(C)(=O)=O)ccc1N(c1ccc(F)cc1)C2 | 1.4
2 | 85 | 79 | 90 | 4.2 | < 51.7 | 0 | 88 | Cn1cc2c3c(c[nH]c3c1=O)CN(c1ccc(F)cc1F)c1ccc(CS(C)(=O)=O)cc1-2 | 3.4
3 | 83 | 81 | 94 | 0.69 | 50 | 0 | 94 | Cn1cc2c3c(c[nH]c3c1=O)CN(c1ccccn1)c1ccc(CS(C)(=O)=O)cc1-2 | 1.3
